# Measurements as given in patent publication US20260374767A1, “FUSED HETEROCYCLIC COMPOUNDS AND USES THEREOF” (Chengdu Zenitar Biomedical Technology Co., Ltd., priority 2022, published 2026).
# Tests used:
# breast cancer MDA-MB-436 [1] = assay: In-vivo pharmacodynamic study on subcutaneous xenograft tumor model of breast cancer MDA-MB-436; design: species or system human tumor cells in NOD/SCID mice
# Description: Strain: NOD/SCID; Grade: SPF; Source: Beijing Vitron River Bio-technology Co., Ltd.
# The cells were washed 3 times with pre-cooled PBS, centrifuged at 300 g for 10 min, collected, re-suspended in PBS, and counted with a blood cell counting chamber, and the cell concentration was adjusted. After cell collection, the cell suspension was pre-cooled on ice. 100 μL of the cell suspension was administered via subcutaneous injection into the dorsal flank of the mice, and the grouped treatment was started when the tumor volume reached 200-300 mm^3.
# Animal assay: all viable experimental animals scheduled for assay; Assay time: All animals were weighed before the modeling for test grouping. After modeling, the mice were weighed once every 2 days, and the weight change of the mice was recorded in real time. Effective criteria: tumor volume (TV), relative tumor volume (RTV) and relative tumor growth rate of subcutaneously implanted tumor model. […] The calculation formula of tumor volume (TV) was: TV (mm^3)=a×b2×0.5, where a and b were the long diameter and short diameter, respectively.
# The evaluation index for anti-tumor activity was the relative tumor growth rate T/C (%), and the calculation formula was as follows: […]
# Where, TRTV is relative tumor volume of the treatment group; CRTV is relative tumor volume of the negative control group. […] The tumor inhibition rate (%) was calculated by the formula below: […]
# All raw data within the facility were collected manually according to the experimental scheme and the relevant guidelines of the research institution, or gathered by using a data acquisition system. Manually collected data can be transcribed into software such as Excel for analysis and reporting. The data from each group were quantitative, and the experimental data for each group of animals in the tables were expressed as mean±standard deviation (Mean±SD). In the figures, the experimental data ware described as mean±standard error of the mean (Mean±SEM). Statistical analysis, including t-tests and survival analysis, was performed by using the software such as EXCEL and GraphPad Prism.
# After 24 days of administration, the tumor-bearing mice were anesthetized and euthanized. The tumor tissues were dissected, weighed, and photographed, and the tumor inhibition rate was calculated.
# SUM14PT = assay: In-vivo pharmacodynamic study on subcutaneous xenograft tumor model of breast cancer SUM14PT; design: species or system nude mice
# Description: Experimental procedure: In this study, a mice model was established by subcutaneously inoculating SUM14PT tumor cells. Eight groups were divided for the experiment, with 6 mice in each group. The negative control group (Control) received normal saline at 0.2 mL per mice per administration, given orally once per day; the carboplatin control group (Carboplatin, Car) received 20 mg/kg at 0.2 mL per mice per administration, administered via intraperitoneal injection once every 7 days.
# DLD-1 cells = assay: Anti-proliferative activity assay, BRCA wild-type DLD-1 cells (CCK8); assay type: cell-based; conditions: Homo sapiens, 72 h + 96 h
# Source text: (§1) 2. Anti-Proliferative Activity Assay of Cell:
# breast cancer MDA-MB-436 [2] = assay: Challenge experiment on subcutaneous xenograft tumor model of breast cancer MDA-MB-436 (large-volume tumors)
# Description: Each group consisted of 5 mice and was administered orally once per day. The body weight of the mice was measured every 2 days, and the length and width of the tumors with a vernier caliper.
# [3] = Pharmacokinetic evaluation in SD rat; assay type: in vivo; conditions: SD rats
# Description: Pharmacokinetic Evaluation of Compound in SD Rat
# (§2) Experimental purpose: To learn pharmacokinetic profiles of compounds.
# Experimental scheme: The pharmacokinetic profile of the compound was investigated by oral intravenous administration in SD rats.
# Experimental procedure: The compound, a small amount of DMSO and a sodium chloride injection were added to prepare the final solution for administration. The compound was orally administered to 6 male SD rats. […] The supernatant was collected and transferred into a sample vial for assay. Range of standard curve: 10-10,000 ng mL^−1.
# MDA-MB-436 cells = assay: Anti-proliferative activity assay, BRCA-mutated MDA-MB-436 cells (CCK8); assay type: cell-based; conditions: Homo sapiens, MDA-MB-436, BRCA-mutated, 72 h + 96 h
# Source text: as §1
# [4] = Body weight in MDA-MB-436 xenograft study; assay type: in vivo, NOD/SCID mice; conditions: for Body weight X ± SD, End: 24 days
# Description: Animal assay: all viable experimental animals scheduled for assay; Assay time: All animals were weighed before the modeling for test grouping. After modeling, the mice were weighed once every 2 days, and the weight change of the mice was recorded in real time. Effective criteria: tumor volume (TV), relative tumor volume (RTV) and relative tumor growth rate of subcutaneously implanted tumor model. The long diameter and short diameter of the tumor was measured with vernier calipers every 2 days, and the anti-tumor effects of the tested drug was dynamically observed. The calculation formula of tumor volume (TV) was: TV (mm^3)=a×b2×0.5, where a and b were the long diameter and short diameter, respectively.
# Each group consisted of 6 mice, all of which are administered orally once daily. […] After 24 days of administration, the tumor-bearing mice were anesthetized and euthanized. The tumor tissues were dissected, weighed, and photographed, and the tumor inhibition rate was calculated.
# [5] = Pharmacokinetic evaluation in Balb/c mice; assay type: in vivo; conditions: 1 mg/kg orally
# Description: Pharmacokinetic Evaluation of Compound in Balb/c Mice
# as §2
# Experimental scheme: The pharmacokinetic profile of the compound was investigated by means of administering it intravenously (1 mg kg^−1) and orally (1 mg kg^−1) to Balb/c mice.
# Sample preparation: About 0.2 mg of the compound was dissolved in 10 μL DMSO, then a sodium chloride injection was added to make a 0.1 mg mL^−1 solution of the compound for administration.
# Three mice were administered the compound intravenously (IV) at a dose of 1 mg kg^−1, and the other three were administered the compound orally (PO) at the same dose. […] The plasma concentration of the drug was quantitatively analyzed with the LC-MS/MS method, and pharmacokinetic parameters were calculated, including the time to peak concentration (Cmax), area under the concentration-time curve (AUC(0-t)), half-life (T1/2), clearance (CL), volume of distribution at steady state (Vdss), and bioavailability (F).
# gastric cancer PDX = assay: In-vivo pharmacodynamic study on PDX gastric cancer mice model; design: species or system patient-derived tumor in mice
# Description: 7. In-Vivo Pharmacodynamic Study of Compound 6 on PDX Gastric Cancer Mice model
# Experimental procedure: Tumor tissues from gastric cancer patients were used to establish a stable passaged tumor-bearing mice model. In this study, tumor fragments from mice that had been stably passaged three times were used for subcutaneous inoculation. Eight groups were divided for the experiment, with 6 mice in each group. The negative control group (Control) received normal saline at 0.2 mL per mice per administration, given orally once per day; the carboplatin control group (Carboplatin, Car) received 20 mg/kg at 0.2 mL per mice per administration, administered via intraperitoneal injection once every 7 days.
# [6] = 0.03 mg/kg orally once daily, 24 days
# [7] = 0.1 mg/kg orally once daily, 24 days
# [8] = 0.3 mg/kg orally once daily, 24 days
compound,measurement,setting,value
"[2H]C([2H])([2H])C([2H])([2H])c1cc2ncc(CN3CC=C(c4ccc(C(=O)NC)nc4)CC3)cc2[nH]c1=O [Compound 6, 1′-((7-(ethyl-d5)-6-oxo-5,6-dihydro-1,5-naphthyridin-3-yl)methyl)-N-methyl-1′,2′,3′,6′-tetrahy dro-[3,4′-bipyridine]-6-carboxamide]",Tumor inhibition rate,breast cancer MDA-MB-436 [1]; [6],49.77%
same,Tumor weight X ± SD,breast cancer MDA-MB-436 [1]; [6],1.09 ± 0.29 g
same,"Tumor volume X ± SD, End",breast cancer MDA-MB-436 [1]; [6],739.4 ± 308.7 mm^3
same,"Tumor volume X ± SD, Start",breast cancer MDA-MB-436 [1]; 0.03 mg/kg orally once daily,275.0 ± 68.1 mm^3
same,Tumor inhibition rate,breast cancer MDA-MB-436 [1]; [7],86.73%
same,Tumor weight X ± SD,breast cancer MDA-MB-436 [1]; [7],0.29 ± 0.09 g
same,"Tumor volume X ± SD, End",breast cancer MDA-MB-436 [1]; [7],228.0 ± 75.9 mm^3
same,"Tumor volume X ± SD, Start",breast cancer MDA-MB-436 [1]; 0.1 mg/kg orally once daily,274.7 ± 73.8 mm^3
same,"tumor inhibition effect, comparison with AZD5305, compound 1 and Olaparib","breast cancer MDA-MB-436 [1]; 0.1 mg/kg vs same dose of AZD5305 and compound 1, vs Olaparib 100 mg/kg","superior to that of the reference compound AZD5305 and the compound 1 at the same dose, and significantly better than that of the reference drug Olaparib group (100 mg/kg)"
same,Tumor inhibition rate,breast cancer MDA-MB-436 [1]; [8],95.83%
same,Tumor weight X ± SD,breast cancer MDA-MB-436 [1]; [8],0.09 ± 0.08 g
same,"Tumor volume X ± SD, End",breast cancer MDA-MB-436 [1]; [8],71.0 ± 62.5 mm^3
same,"Tumor volume X ± SD, Start",breast cancer MDA-MB-436 [1]; 0.3 mg/kg orally once daily,281.9 ± 67.4 mm^3
same,complete tumor regression,"breast cancer MDA-MB-436 [1]; 0.3 mg/kg, at the end of treatment",2/6
same,"dose dependence among low, medium and high dose groups","breast cancer MDA-MB-436 [1]; 0.03, 0.1, 0.3 mg/kg, P<0.001, P<0.01",significant dose-dependent differences
same,inhibitory effects on tumor growth compared to blank control group,"breast cancer MDA-MB-436 [1]; 24 days, all dose groups",significant inhibitory effects on tumor growth
same,"therapeutic efficacy in combination with carboplatin, compared to Olaparib plus carboplatin",SUM14PT; 1 mg/kg orally once daily + carboplatin vs Olaparib 100 mg/kg + carboplatin,better therapeutic efficacy than Olaparib
same,"anti-tumor efficacy, monotherapy, compared to Olaparib",SUM14PT; 0.3 and 1 mg/kg orally once daily vs Olaparib 100 mg/kg orally once daily,better anti-tumor efficacy compared to Olaparib
same,IC50,DLD-1 cells,> 10000 nM
same,"rate of tumor regression, comparison with compounds 1 and 21",breast cancer MDA-MB-436 [2]; 1 mg/kg orally once per day,faster rate of tumor regression compared to the compounds 1 and 21
same,tumor regression in large-volume tumors,breast cancer MDA-MB-436 [2]; 1 mg/kg orally once per day,complete regression of tumors
same,"in-vivo anti-tumor efficacy, comparison with compounds 1 and 21","breast cancer MDA-MB-436 [2]; 1 mg/kg, same dose",stronger in-vivo anti-tumor efficacy than compounds 1 and 21
same,"Cmax, comparison with AZD5305, compound 1 and compound 21",[3],"superior to those of the reference compound AZD5305, compound 1 and compound 21"
same,IC50,MDA-MB-436 cells,0.6 nM
same,"Body weight X ± SD, End",[4]; 0.03 mg/kg orally once daily,21.6 ± 0.7 g
same,"Body weight X ± SD, Start",[4]; 0.03 mg/kg orally once daily,22.6 ± 0.7 g
same,"Body weight X ± SD, End",[4]; 0.1 mg/kg orally once daily,21.6 ± 0.7 g
same,"Body weight X ± SD, Start",[4]; 0.1 mg/kg orally once daily,22.3 ± 1.0 g
same,"Body weight X ± SD, End",[4]; 0.3 mg/kg orally once daily,22.0 ± 0.9 g
same,"Body weight X ± SD, Start",[4]; 0.3 mg/kg orally once daily,22.3 ± 0.8 g
same,"Cmax, comparison with AZD5305 and compounds 1, 2, 3, 15, 21",[5],"superior to that of the reference compound 5305, as well as compounds 1, 2, 3, 15, and 21"
same,inhibition of tumor growth in gastric cancer PDX model,gastric cancer PDX; 3 mg/kg p.o. combined with carboplatin 20 mg/kg i.p.,significantly inhibit tumor growth
same,inhibitory effect on gastric cancer PDX model,"gastric cancer PDX; combined with carboplatin (20 mg/kg i.p. once every 7 days), 0.3, 1, 3 mg/kg p.o.",dose-dependent inhibitory effect
